Experimental data: paper PMC12703733, “Probing Guanidino Pendant or Bridged Groups in Cyclic Antimicrobial Peptides Derived from Temporin L: A Strategy to Improve Efficacy against Gram-Negative Bacteria” (Journal of Medicinal Chemistry, 2025)
Like-named read-outs stand apart in the source and are kept apart here. Bridge positions count the residues as written; N and C are the ends. Square brackets hold non-standard residues; d marks the D form. Peptide text beside a SMILES is read from it. * marks the point of attachment. Phe(4-guanidino) = N=C(N)Nc1ccc(C[C@H](N)C(=O)O)cc1; Butanoyl(4-guanidino) = N=C(N)NCCCC(=O)*

Key:
[1] = circular dichroism; details: water; pH ns; 25 °C; 150 uM
[2] = type: cell-based, human; details: human; for viability at 2 h, 3.12 µM / viability at 2 h, 6.25 µM / viability at 2 h, 12.5 µM / viability at 2 h, 25 µM / viability at 2 h, 50 µM / viability at 2 h, 100 µM / viability at 24 h, 3.12 µM / viability at 24 h, 6.25 µM / viability at 24 h, 12.5 µM / viability at 24 h, 25 µM / viability at 24 h, 50 µM / viability at 24 h, 100 µM: Cell viability (%)
Method: (§1) For the evaluation of peptides’ cytotoxicity, the human immortalized keratinocytes (HaCaT cells), purchased from AddexBio (San Diego, CA, USA), and BEAS-2B were used. HaCaT cells were cultured in Dulbecco’s modified Eagle’s medium supplemented with 4 mM glutamine (DMEM), 10% heat-inactivated fetal bovine serum (FBS), and 0.1 mg/mL of penicillin and streptomycin, at 37 °C and 5% CO2. BEAS-2B cells were cultured in RPMI, supplemented with 2 mM glutamine (DMEM), 10% heat-inactivated fetal bovine serum (FBS), 1 mM sodium pyruvate, and 0.1 mg/mL of penicillin and streptomycin, at 37 °C and 5% CO2. Cytotoxicity was tested in vitro using a colorimetric assay that relies on the intracellular reduction of the yellow 3-(4,5-dimethylthiazol-2-yl)-2,5-diphenyltetrazolium bromide salt (MTT) by mitochondrial dehydrogenases of metabolically active cells in formazan crystals (purple). About 4 × 10^4 HaCaT and BEAS-2B cells, suspended in DMEM supplemented with 2% FBS, were plated in triplicate wells of a 96-well microtiter plate. The plate was incubated overnight at 37 °C and 5% CO2. Then, the cells were treated with different concentrations of the peptide (from 100 to 3.12 μM) in a fresh serum-free medium for 2 h and for a longer time (24 h). Following peptide treatment, the medium was removed, and MTT (0.5 mg/mL) solution in Hank’s buffer (136 mM NaCl, 4.2 mM Na2HPO4, 4.4 mM KH2PO4, 5.4 mM KCl, 4.1 mM NaHCO3, pH 7.2, supplemented with 20 mM D-glucose) was added to each well of the plate, that was then incubated for 4 h at 37 °C and 5% CO2. The purple formazan crystals were dissolved using acidified 2-propanol and a microplate reader (Infinite M200; Tecan, Salzburg, Austria) was used to measure the absorbance of each well at 570 nm. The percentage of cell viability was calculated compared to the control, which consisted of cells without any peptide treatment (corresponding to 100% viability) and all data represent the mean of three independent experiments ± SEM.

[3] = test system: P. aeruginosa PAO1; experiment: microbe, parasite or virus in culture; type: cell-based
Method: (§2) Bacterial strains used in this study were the Gram-positive S. aureus ATCC 25923, S. epidermidis ATCC 12228, B. megaterium BM11, S. [NT] 27591, E. faecalis ATCC 29212 and the Gram-negative E. coli ATCC 25922, P. aeruginosa ATCC 27853, A. baumannii ATCC 19606, E. coli D21 and P. aeruginosa PAO1. […] Bacterial cells in the mid log phase were diluted in Muller Hinton (MH) at a concentration of 2 × 10^6 cell/mL. […] Ciprofloxacin was used as antibiotic control. The plate was then incubated at 37 °C. MICs were obtained from three identical readings of four independent experiments.

[4] = test system: P. aeruginosa ATCC 27853; experiment: microbe, parasite or virus in culture; type: cell-based
Method: as §2

[5] = test system: B. megaterium BM11; experiment: microbe, parasite or virus in culture; type: cell-based
Method: as §2

[6] = test system: A. baumannii ATCC 19606; experiment: microbe, parasite or virus in culture; type: cell-based
Method: as §2

[7] = test system: S. aureus ATCC 25923; experiment: microbe, parasite or virus in culture; type: cell-based
Method: as §2

[8] = test system: S. agalactiae ATCC 27591; experiment: microbe, parasite or virus in culture; type: cell-based
Method: as §2

[9] = test system: E. coli ATCC 25922; experiment: microbe, parasite or virus in culture; type: cell-based
Method: as §2

[10] = test system: E. faecalis ATCC 29212; experiment: microbe, parasite or virus in culture; type: cell-based
Method: as §2

[11] = test system: E. coli D21; experiment: microbe, parasite or virus in culture; type: cell-based
Method: as §2

[12] = test system: S. epidermidis ATCC 12228; experiment: microbe, parasite or virus in culture; type: cell-based
Method: as §2

[13] = test system: human keratinocytes (HaCaT cells); type: cell-based
Method: as §1

Row | SMILES | helicity [1] [%] | viability at 2 h, 3.12 µM [2] [%] | viability at 2 h, 6.25 µM [2] [%] | viability at 2 h, 12.5 µM [2] [%] | viability at 2 h, 25 µM [2] [%] | viability at 2 h, 50 µM [2] [%] | viability at 2 h, 100 µM [2] [%] | viability at 24 h, 3.12 µM [2] [%] | viability at 24 h, 6.25 µM [2] [%] | viability at 24 h, 12.5 µM [2] [%] | viability at 24 h, 25 µM [2] [%] | viability at 24 h, 100 µM [2] [%] | MIC ([4]; ATCC 27853) [µM] | MIC ([5]; BM11) [µM] | MIC ([6]; ATCC 19606) [µM] | MIC ([7]; ATCC 25923) [µM] | MIC ([8]; ATCC 27591) [µM] | MIC ([9]; ATCC 25922) [µM] | MIC ([10]; ATCC 29212) [µM] | MIC ([11]; D21) [µM] | other results
1 | CC[C@H](C)[C@H](NC(=O)[C@H](CCCNC(=N)N)NC(=O)[C@H]1CCC(=O)NCCCC[C@H](NC(=O)[C@H](Cc2ccccc2)NC(=O)[C@H](Cc2c[nH]c3ccccc23)NC(=O)[C@@H]2CCCN2C(=O)[C@@H](NC(=O)[C@H](Cc2ccccc2)NC(=O)CCCNC(=N)N)C(C)C)C(=O)N[C@@H](CCCCN)C(=O)N[C@@H](Cc2ccccc2)C(=O)N[C@H](CC(C)C)C(=O)N1)C(=O)N[C@@H](CC(C)C)C(N)=O [Peptide 5, guanidino-GABA-FVPWF[KKFle]RIL] ({Butanoyl(4-guanidino)}-FVPWFKKF[dL][dE]RIL-NH2; lactam 6-10) | 16 | 128 | 126 | 128 | 76 | 18 | 4 | 116 ± 7 | 137 ± 15 | 147 ± 15 | 58 ± 6 | 1 ± 1 | 50 | 0.78 | 3.12 | 3.12 | 1.56 | 6.25 | 6.25 | 6.25 | CC50 at 24 h [2]: 24.6 µM; viability at 24 h, 50 µM [2]: 1 ± 1%; MIC ([3]; PAO1): 25 µM; MIC ([12]; ATCC 12228): 3.12 µM
2 | CC[C@H](C)[C@H](NC(=O)[C@H](CCCNC(=N)N)NC(=O)[C@H]1CCC(=O)NCCCC[C@H](NC(=O)[C@H](Cc2ccc(NC(=N)N)cc2)NC(=O)[C@H](Cc2c[nH]c3ccccc23)NC(=O)[C@@H]2CCCN2C(=O)[C@@H](NC(=O)[C@@H](N)Cc2ccccc2)C(C)C)C(=O)N[C@@H](CCCCN)C(=O)N[C@@H](Cc2ccccc2)C(=O)N[C@H](CC(C)C)C(=O)N1)C(=O)N[C@@H](CC(C)C)C(N)=O [Peptide 8, FVPW(p-guanidino)F[KKFle]RIL] (H-FVPW[Phe(4-guanidino)]KKF[dL][dE]RIL-NH2; lactam 6-10) | 7 | 111 | 112 | 115 | 110 | 92 | 63 | 101 ± 4 | 105 ± 6 | 110 ± 3 | 124 ± 1 | 58 ± 9 | 50 | 0.78 | 6.25 | 25 | 3.12 | 12.5 | 25 | 6.25 | MIC ([3]; PAO1): 25 µM; MIC ([12]; ATCC 12228): 6.25 µM
3 | CC[C@H](C)[C@H](NC(=O)[C@H](CCCNC(=N)N)NC(=O)[C@H]1CCC(=O)NCCCC[C@H](NC(=O)[C@H](Cc2ccccc2)NC(=O)[C@H](Cc2c[nH]c3ccccc23)NC(=O)[C@@H]2CCCN2C(=O)[C@@H](NC(=O)[C@@H](N)Cc2ccccc2)C(C)C)C(=O)N[C@@H](CCCCN)C(=O)N[C@@H](Cc2ccc(NC(=N)N)cc2)C(=O)N[C@H](CC(C)C)C(=O)N1)C(=O)N[C@@H](CC(C)C)C(N)=O [Peptide 10, FVPWF[KK(p-guanidino)Fle]RIL] (H-FVPWFKK[Phe(4-guanidino)][dL][dE]RIL-NH2; lactam 6-10) | 3 | 105 | 110 | 112 | 112 | 101 | 82 | 98 ± 3 | 104 ± 2 | 103 ± 3 | 106 ± 3 | 95 ± 6 | 50 | 0.78 | 6.25 | 100 | 6.25 | 6.25 | 50 | 6.25 | viability at 24 h, 50 µM [2]: 116 ± 5%; MIC ([3]; PAO1): 25 µM; MIC ([12]; ATCC 12228): 12.5 µM
4 | CC[C@H](C)[C@H](NC(=O)[C@H](CCCNC(=N)N)NC(=O)[C@@H]1CCCNC(=N)NCCC[C@H](NC(=O)[C@H](Cc2ccccc2)NC(=O)[C@H](Cc2c[nH]c3ccccc23)NC(=O)[C@@H]2CCCN2C(=O)[C@@H](NC(=O)[C@@H](N)Cc2ccccc2)C(C)C)C(=O)N[C@@H](CCCCN)C(=O)N[C@@H](Cc2ccccc2)C(=O)N[C@H](CC(C)C)C(=O)N1)C(=O)N[C@@H](CC(C)C)C(N)=O [Peptide 13, FVPWF{OrnKFlOrn}RIL] | 10 | 107 | 104 | 76 | 31 | 7 | 2 | 103 ± 2 | 103 ± 3 | 97 ± 2 | 22 ± 2 | 3 ± 1 | 50 | 0.39 | 1.56 | 6.25 | 1.56 | 6.25 | 6.25 | 6.25 | CC50 at 24 h [2]: 19.7 µM; viability at 24 h, 50 µM [2]: 2 ± 1%; cytotoxicity (in words) [13]: Low cytotoxicity (up to 25 μM); MIC ([12]; ATCC 12228): 1.56 µM
5 | O=C(O)c1cn(C2CC2)c2cc(N3CCNCC3)c(F)cc2c1=O [Ciprofloxacin, reference compound] |  |  |  |  |  |  |  |  |  |  |  |  |  |  |  |  |  |  |  |  | MIC ([3]; Pseudomonas aeruginosa, P. aeruginosa PAO1, antibiotic control, read-out: MIC): 0.12 µg/mL; MIC ([4]; Pseudomonas aeruginosa, ATCC27853, P. aeruginosa ATCC 27853, antibiotic control, read-out: MIC): 0.5 µg/mL; MIC ([5]; Priestia megaterium, B. megaterium BM11, antibiotic control, read-out: MIC): 0.12 µg/mL; MIC ([6]; Acinetobacter baumannii, ATCC19606, A. baumannii ATCC 19606, antibiotic control, read-out: MIC): 1 µg/mL; MIC ([7]; Staphylococcus aureus, ATCC25923, S. aureus ATCC 25923, antibiotic control, read-out: MIC): 0.5 µg/mL; MIC ([8]; Streptococcus agalactiae, ATCC27591, S. agalactiae ATCC 27591, antibiotic control, read-out: MIC): 0.5 µg/mL; MIC ([9]; Escherichia coli, ATCC25922, E. coli ATCC 25922, antibiotic control, read-out: MIC): 0.01 µg/mL; MIC ([10]; Enterococcus faecalis, ATCC29212, E. faecalis ATCC 29212, antibiotic control, read-out: MIC): 0.5 µg/mL; MIC ([11]; Escherichia coli, E. coli D21, antibiotic control, read-out: MIC): 0.01 µg/mL; MIC ([12]; Staphylococcus epidermidis, ATCC12228, S. epidermidis ATCC 12228, antibiotic control, read-out: MIC): 0.25 µg/mL
